The values below come from ChEMBL document CHEMBL4715888, “Synthetic approaches to unsymmetrical 2,5-disubstituted 1,3,4-oxadiazoles and their MAO-B inhibitory activity. A review” (Bioorg Med Chem, 2021).

The species named for one experiment is Rattus norvegicus. Description: Selectivity ratio of IC50 for Sprague-Dawley rat brain mitochondrial MAO-A to IC50 for Sprague-Dawley rat brain mitochondrial MAO-B.
In experiment [1] the target is T1, Amine oxidase [flavin-containing] A (Rattus norvegicus, UniProt P21396).
T1 sequence (P21396 whole entry): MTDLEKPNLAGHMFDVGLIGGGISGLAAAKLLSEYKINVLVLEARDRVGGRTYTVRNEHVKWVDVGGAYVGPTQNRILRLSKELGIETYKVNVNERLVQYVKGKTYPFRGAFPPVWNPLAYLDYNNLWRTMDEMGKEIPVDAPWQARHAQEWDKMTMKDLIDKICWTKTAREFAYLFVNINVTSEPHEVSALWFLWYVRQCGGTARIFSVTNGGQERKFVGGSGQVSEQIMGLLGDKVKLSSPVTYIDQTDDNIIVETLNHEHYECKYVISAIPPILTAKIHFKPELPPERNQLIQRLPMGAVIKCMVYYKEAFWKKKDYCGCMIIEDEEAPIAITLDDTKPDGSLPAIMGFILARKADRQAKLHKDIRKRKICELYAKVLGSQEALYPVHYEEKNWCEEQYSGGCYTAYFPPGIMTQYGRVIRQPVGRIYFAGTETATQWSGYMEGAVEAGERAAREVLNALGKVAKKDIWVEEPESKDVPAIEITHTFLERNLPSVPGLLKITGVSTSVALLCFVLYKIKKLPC
Put plainly: Inhibition of Sprague-Dawley rat brain mitochondrial MAO-A using [14C]-5-HT as substrate by radioassay method.

Experiment [2] addresses T2, Amine oxidase [flavin-containing] B (Rattus norvegicus, UniProt P19643).
T2 sequence (P19643 whole entry): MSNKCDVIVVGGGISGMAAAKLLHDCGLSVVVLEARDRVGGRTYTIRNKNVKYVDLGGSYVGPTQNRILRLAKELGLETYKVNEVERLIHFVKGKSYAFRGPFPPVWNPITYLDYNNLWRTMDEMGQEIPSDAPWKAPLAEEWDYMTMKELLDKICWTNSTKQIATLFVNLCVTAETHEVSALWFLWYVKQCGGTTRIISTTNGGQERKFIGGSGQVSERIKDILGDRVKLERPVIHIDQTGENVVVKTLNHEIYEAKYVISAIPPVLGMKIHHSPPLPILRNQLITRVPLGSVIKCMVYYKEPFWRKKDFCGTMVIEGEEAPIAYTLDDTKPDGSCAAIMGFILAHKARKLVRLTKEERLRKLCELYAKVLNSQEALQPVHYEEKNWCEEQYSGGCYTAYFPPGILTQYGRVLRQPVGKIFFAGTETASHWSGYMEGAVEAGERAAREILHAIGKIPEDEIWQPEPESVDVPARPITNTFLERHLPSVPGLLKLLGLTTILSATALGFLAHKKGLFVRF
Description: Inhibition of Sprague-Dawley rat brain mitochondrial MAO-B using [14C]-PEA as substrate by radioassay method.

Experiment [3] addresses T2, Amine oxidase [flavin-containing] B. Description: Inhibition of Sprague-Dawley rat brain mitochondrial MAO-B using [14C]-PEA as substrate preincubated for 120 mins by radiochemical method.
Experiment [4] has the same target. Description: Inhibition of Sprague-Dawley rat brain mitochondrial MAO-B using [14C]-PEA as substrate preincubated for 60 mins by radiochemical method.
Experiment [5] has the same target. Put plainly: Inhibition of Sprague-Dawley rat brain mitochondrial MAO-B using PEA as substrate preincubated for 60 mins. The conditions noted are these: read-out: Kieq.
The target is the same in experiment [6]. Put plainly: Competitive inhibition of Sprague-Dawley rat brain mitochondrial MAO-B using PEA as substrate by Lineweaver-Burk plot analysis.

Each structure is given as a SMILES string. Bounds are passed on as bounds.

The term IC50 denotes the midpoint of a concentration-inhibition curve. Higher therefore signals lower potency. For the molecule `N#CCCn1nc(-c2ccc(-c3ccccc3)cc2)oc1=O`, the Ratio IC50 in the experiment filed under Rattus norvegicus is 139. For the same molecule, the 50% inhibitory concentration (IC50) came out at 7800 nM in experiment [1] and 56 nM in experiment [2].
The like results for `N#CCCn1nc(-c2ccc(-c3ccccc3)cc2)oc1=S` were, in that order, 304, 22500 nM and 74 nM.
In the case of `O=c1oc(-c2ccc(OCc3ccccc3)cc2)nn1CCO`, the Ratio IC50 in the experiment filed under Rattus norvegicus is > 30400. The IC50 in experiment [3] and in experiment [4] was 4.7 nM each time.
Take `N#CCCn1nc(-c2ccc(OCc3ccccc3)cc2)oc1=S`: in the experiment filed under Rattus norvegicus, the Ratio IC50 was > 3200.
For the molecule `N#CCCn1nc(-c2ccc(OCc3ccccc3)cc2)oc1=O`, the Ratio IC50 in the experiment filed under Rattus norvegicus was > 71400. Besides, the Ki in experiment [5] was determined as 0.7 nM; in experiment [6], 220 nM.
